Test results taken from US10828305B2 (SHANGHAI PHARMACEUTICALS HOLDING CO., LTD., priority 2016, dated 2020).
Where two headings read alike, the source gives them in different places.

What was measured:
[1] = molecular target: ErbB2 kinase (Homo sapiens, UniProt P04626); experiment: Enzymatic experiment on ErbB2 (HTRF kinEASE-TK); assay type: biochemical
Summary of the method: (§1)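 HTRF kinEASE-TK with biotinylated TK substrate in HEPES pH 7.0 buffer containing MnCl2, MgCl2 and DTT; ErbB2 at 0.06 ng/μl with 4 μM ATP, EGFR at 0.06 units/μl with 1.65 μM ATP, 30 min at room temperature after 5 min enzyme/substrate–compound preincubation. Ten-point 3-fold dilutions; Eu antibody/SA-XL665 detection, 665/620 ratio.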

[2] = molecular target: EGFR kinase (Homo sapiens, UniProt P00533); experiment: Enzymatic experiment on EGFR (HTRF kinEASE-TK); assay type: biochemical
Chain of EGFR kinase (P00533 25-1210): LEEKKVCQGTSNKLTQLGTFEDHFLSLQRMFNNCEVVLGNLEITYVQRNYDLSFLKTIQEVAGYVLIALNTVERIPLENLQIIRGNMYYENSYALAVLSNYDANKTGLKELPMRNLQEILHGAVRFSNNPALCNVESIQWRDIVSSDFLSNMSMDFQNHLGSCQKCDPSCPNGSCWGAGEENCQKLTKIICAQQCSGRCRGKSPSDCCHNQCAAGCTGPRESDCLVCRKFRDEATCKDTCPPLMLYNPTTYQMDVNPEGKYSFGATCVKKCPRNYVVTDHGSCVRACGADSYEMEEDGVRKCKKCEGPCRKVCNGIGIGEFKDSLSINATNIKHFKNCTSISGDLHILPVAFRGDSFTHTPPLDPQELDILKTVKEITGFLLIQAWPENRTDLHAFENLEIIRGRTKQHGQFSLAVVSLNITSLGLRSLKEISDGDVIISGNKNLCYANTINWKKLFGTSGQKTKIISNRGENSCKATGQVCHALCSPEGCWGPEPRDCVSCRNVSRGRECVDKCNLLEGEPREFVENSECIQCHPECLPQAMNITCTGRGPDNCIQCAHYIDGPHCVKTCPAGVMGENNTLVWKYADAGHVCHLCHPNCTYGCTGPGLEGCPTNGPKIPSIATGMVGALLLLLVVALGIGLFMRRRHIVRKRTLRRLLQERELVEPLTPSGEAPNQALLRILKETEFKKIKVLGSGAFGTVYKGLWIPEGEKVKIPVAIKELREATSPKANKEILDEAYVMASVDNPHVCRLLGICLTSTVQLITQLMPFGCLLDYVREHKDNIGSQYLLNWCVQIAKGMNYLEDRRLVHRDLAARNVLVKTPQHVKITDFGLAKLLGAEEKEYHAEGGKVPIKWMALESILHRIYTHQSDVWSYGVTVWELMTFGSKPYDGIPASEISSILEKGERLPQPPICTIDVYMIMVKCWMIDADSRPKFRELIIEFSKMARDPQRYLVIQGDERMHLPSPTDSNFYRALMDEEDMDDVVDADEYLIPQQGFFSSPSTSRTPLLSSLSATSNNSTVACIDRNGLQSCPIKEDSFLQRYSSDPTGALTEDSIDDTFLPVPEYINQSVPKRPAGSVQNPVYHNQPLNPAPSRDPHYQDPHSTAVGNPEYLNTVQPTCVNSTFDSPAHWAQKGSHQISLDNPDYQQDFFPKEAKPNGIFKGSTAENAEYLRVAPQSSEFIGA
Summary of the method: as §1

[3] = test system: N87; experiment: Proliferation inhibition assay in vitro, N87 (CellTiter-Glo); assay type: cell-based; details: Homo sapiens; 72 hours; read-out: IC50(nM) cell N87
Summary of the method: (§2)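 Cells were seeded at 8.8×10^4 cells/mL for BT-474 or 6.6×10^4 cells/mL for N87 and grown overnight. Compound was added at 9 concentrations in duplicate for 72 h at 37 °C, 5% CO2. Viability was measured by CellTiter-Glo.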

[4] = test system: BT-474; experiment: Proliferation inhibition assay in vitro, BT-474 (CellTiter-Glo); assay type: cell-based; details: Homo sapiens, 72 hours, read-out: IC50(nM) cell BT-474
Summary of the method: as §2

[5] = ATP 4 μM, read-out: Kinase IC50 (nM) in vitro ErbB2
[6] = ATP 1.65 μM, read-out: Kinase IC50 (nM) in vitro EGFR

Chain of ErbB2 kinase (P04626 23-1255): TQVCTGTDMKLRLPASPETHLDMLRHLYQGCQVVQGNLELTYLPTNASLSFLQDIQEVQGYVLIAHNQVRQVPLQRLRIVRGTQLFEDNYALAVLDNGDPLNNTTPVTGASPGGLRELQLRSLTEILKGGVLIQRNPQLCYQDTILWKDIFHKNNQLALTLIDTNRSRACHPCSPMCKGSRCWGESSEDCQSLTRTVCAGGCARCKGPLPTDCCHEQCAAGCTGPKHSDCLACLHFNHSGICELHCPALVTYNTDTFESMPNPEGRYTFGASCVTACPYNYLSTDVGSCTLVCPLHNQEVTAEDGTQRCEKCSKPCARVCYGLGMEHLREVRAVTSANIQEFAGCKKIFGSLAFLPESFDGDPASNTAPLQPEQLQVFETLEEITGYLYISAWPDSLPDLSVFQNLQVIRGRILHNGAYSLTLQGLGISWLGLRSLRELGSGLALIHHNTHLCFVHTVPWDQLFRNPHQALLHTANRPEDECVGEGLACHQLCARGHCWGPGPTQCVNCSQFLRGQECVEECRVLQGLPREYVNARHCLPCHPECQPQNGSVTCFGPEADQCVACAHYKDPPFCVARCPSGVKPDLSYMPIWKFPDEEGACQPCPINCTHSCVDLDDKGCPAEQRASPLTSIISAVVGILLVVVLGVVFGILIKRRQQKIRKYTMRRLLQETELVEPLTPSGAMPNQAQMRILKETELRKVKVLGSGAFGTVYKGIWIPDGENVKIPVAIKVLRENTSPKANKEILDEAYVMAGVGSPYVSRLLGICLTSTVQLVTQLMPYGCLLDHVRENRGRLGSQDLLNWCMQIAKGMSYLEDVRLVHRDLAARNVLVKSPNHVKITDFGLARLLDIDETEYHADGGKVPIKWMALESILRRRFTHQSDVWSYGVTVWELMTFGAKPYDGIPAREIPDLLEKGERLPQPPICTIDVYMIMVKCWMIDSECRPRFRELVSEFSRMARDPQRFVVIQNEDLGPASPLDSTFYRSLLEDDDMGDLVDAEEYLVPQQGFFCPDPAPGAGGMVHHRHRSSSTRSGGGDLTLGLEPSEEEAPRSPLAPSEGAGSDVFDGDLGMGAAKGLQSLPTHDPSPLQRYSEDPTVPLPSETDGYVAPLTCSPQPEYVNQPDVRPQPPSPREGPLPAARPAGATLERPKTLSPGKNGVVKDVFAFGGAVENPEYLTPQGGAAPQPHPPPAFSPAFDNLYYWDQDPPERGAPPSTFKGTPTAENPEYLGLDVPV

Row | IC50 [1, 5] | IC50 [2, 6] | IC50 [4] | SMILES | IC50 [3] | IC50 [1] | IC50 [2]
1 | 6.4 nM | 370 nM | 32.8 nM | C=CC(=O)Nc1ccc(-c2ccc3ncnc(Nc4ccc(Oc5cc6nncn6cn5)c(C)c4)c3c2)cn1 [Embodiment 54, N-(5-(4-((4-([1,2,4]triazolo[4,3-c]pyrimidin-7-yloxy)-3-methylphenyl)amino)quinazolin-6-yl)pyridin-2-yl)acrylamide] | 150 nM |  | 
2 | 1 nM | 15.9 nM | 28.4 nM | C=CC(=O)Nc1cc(-c2ccc3ncnc(Nc4ccc(Oc5cc6nncn6cn5)c(C)c4)c3c2)ccn1 [Embodiment 55, N-(4-(4-((4-([1,2,4]triazolo[4,3-c]pyrimidin-7-yloxy)-3-methylphenyl)amino)quinazolin-6-yl)pyridin-2-yl)acrylamide] | 122 nM |  | 
3 | 34 nM | 2450 nM | 35.4 nM | C=CC(=O)Nc1ccc(-c2ccc3ncnc(Nc4ccc(Oc5cc6nncn6cn5)c(C)c4)c3c2)c(C)n1 [Embodiment 56, N-(5-(4-((4-([1,2,4]triazolo[4,3-c]pyrimidin-7-yloxy)-3-methylphenyl)amino)quinazolin-6-yl)-6-methylpyridin-2-yl)acrylamide] | 466 nM |  | 
4 | 1.7 nM | 2.7 nM | 5.6 nM | Cc1cc(Nc2ncnc3ccc(NC(=O)/C=C/CN(C)C)cc23)ccc1Oc1cc2nncn2cn1 [Embodiment 57, (E)-N-(4-((4-([1,2,4]triazolo[4,3-c]pyrimidin-7-yloxy)-3-methylphenyl)amino)quinazolin-6-yl)-4-(dimethylamino)-2-butenamide] | 12.8 nM |  | 
5 | 5.4 nM | 206 nM | 352 nM | Cc1cc(Nc2ncnc3ccc(NC(=O)C4CC(Br)=NO4)cc23)ccc1Oc1cc2nncn2cn1 (stereo not drawn) [Embodiment 58, N-(4-((4-([1,2,4]triazolo[4,3-c]pyrimidin-7-yloxy)-3-methylphenyl)amino)quinazolin-6-yl)-3-bromo-4,5-dihydroisoxazol-5-carboxamide] | 192 nM |  | 
6 | 5.7 nM | 40.2 nM | 281 nM | Cc1cc(Nc2ncnc3ccc(-c4ccc(CN(C)C)o4)cc23)ccc1Oc1cc2nncn2cn1 [Embodiment 59, N-(4-([1,2,4]triazolo[4,3-c]pyrimidin-7-yloxy)-3-methylphenyl)-6-(5-((dimethylamino)methyl)furan-2-yl)-4-aminoquinazoline] | 61.1 nM |  | 
7 | 1.1 nM | 15.6 nM | 108 nM | Cc1cc(Nc2ncnc3ccc(-c4ccc(CO)o4)cc23)ccc1Oc1cc2nncn2cn1 [Embodiment 60, (5-(4-((4-([1,2,4]triazolo[4,3-c]pyrimidin-7-yloxy)-3-methylphenyl)amino)quinazolin-6-yl)furan-2-yl)methanol] | 23.4 nM |  | 
8 | 6 nM | 44.7 nM | 48.9 nM | Cc1cc(Nc2ncnc3ccc(-c4ccc(CN5CCN(C)CC5)o4)cc23)ccc1Oc1cc2nncn2cn1 [Embodiment 61] | 35.4 nM |  | 
9 | 1.5 nM | 14.2 nM | 30 nM | Cc1cc(Nc2ncnc3ccc(-c4cc(CNCCS(C)(=O)=O)co4)cc23)ccc1Oc1cc2nncn2cn1 [Embodiment 62] | 72.4 nM |  | 
10 | 1.8 nM | 29.5 nM | 12.7 nM | Cc1cc(Nc2ncnc3ccc(-c4ccc(CN5CCS(=O)(=O)CC5)o4)cc23)ccc1Oc1cc2nncn2cn1 [Embodiment 63] | 13 nM |  | 
11 | 1.6 nM | 29 nM | 27.6 nM | Cc1cc(Nc2ncnc3ccc(-c4cc(CN5CCS(=O)(=O)CC5)co4)cc23)ccc1Oc1cc2nncn2cn1 [Embodiment 64] | 42.7 nM |  | 
12 | 1 nM | 3.8 nM | 19.8 nM | Cc1cc(Nc2ncnc3ccc(-c4ccc(CNCCS(N)(=O)=O)o4)cc23)ccc1Oc1cc2nncn2cn1 [Embodiment 65] | 63.2 nM |  | 
13 | 3.2 nM | 157 nM | 177 nM | Cc1cc(NC(=O)Nc2ccc3ncnc(Nc4ccc(Oc5cc6nncn6cn5)c(C)c4)c3c2)no1 [Embodiment 67, 1-(4-((4-([1,2,4]triazolo[4,3-c]pyrimidin-7-yloxy)-3-methylphenyl)amino)quinazolin-6-yl)-3-(5-methylisoxazol-3-yl)urea] | 264 nM |  | 
14 | 2.2 nM | 5.4 nM | 38.7 nM | Cc1cc(Nc2ncnc3ccc(-c4cccc(CNCCS(C)(=O)=O)c4)cc23)ccc1Oc1cc2nncn2cn1 [Embodiment 68] | 52 nM |  | 
15 | 3.3 nM | 73.4 nM | 172 nM | Cc1cc(NC(=O)Nc2ccc3ncnc(Nc4ccc(Oc5cc6nncn6cn5)c(C)c4)c3c2)n[nH]1 [Embodiment 70, 1-(4-((4-([1,2,4]triazolo[4,3-c]pyrimidin-7-yloxy)-3-methylphenyl)amino)quinazolin-6-yl)-3-(5-methyl-1H-pyrazol-3-yl)urea] | 852 nM |  | 
16 | 3.5 nM | 20.7 nM | 42.7 nM | C=C(F)C(=O)Nc1cccc(-c2ccc3ncnc(Nc4ccc(Oc5cc6nncn6cn5)c(C)c4)c3c2)c1 [Embodiment 71, N-(3-(4-((4-([1,2,4]triazolo[4,3-c]pyrimidin-7-yloxy)-3-methylphenyl)amino)quinazolin-6-yl)phenyl)-2-fluoroacrylamide] | 66.4 nM |  | 
17 | 0.9 nM | 4.3 nM | 30 nM | Cc1cc(Nc2ncnc3ccc(NC4=NC5(CC5)CO4)cc23)ccc1Oc1cc2nncn2cn1 [Embodiment 72, N′-(4-([1,2,4]triazolo[4,3-c]pyrimidin-7-yloxy)-3-methylphenyl)-N^6-(6-oxa-4-azaspiro[2.4]hept-4-en-5-yl)quinazolin-4,6-diamine] | 34.2 nM |  | 
18 | 4.21 nM | 34.9 nM | 139 nM | Cc1cc(Nc2ncnc3ccc(NC(=O)Nc4cc(C)n(C)n4)cc23)ccc1Oc1cc2nncn2cn1 [Embodiment 73, 1-(4-((4-([1,2,4]triazolo[4,3-c]pyrimidin-7-yloxy)-3-methylphenyl)amino)quinazolin-6-yl)-3-(1,5-dimethyl-1H-pyrazol-3-yl)urea] | 162 nM |  | 
19 | 2.4 nM | 43.3 nM | 85.8 nM | Cc1coc(NC(=O)Nc2ccc3ncnc(Nc4ccc(Oc5cc6nncn6cn5)c(C)c4)c3c2)n1 [Embodiment 74, 1-(4-((4-([1,2,4]triazolo[4,3-c]pyrimidin-7-yloxy)-3-methylphenyl)amino)quinazolin-6-yl)-3-(4-methyloxazol-2-yl)urea] | 106 nM |  | 
20 | 1.34 nM | 19.2 nM | 9 nM | C=CC(=O)Nc1cccc(-c2ccc3ncnc(Nc4ccc(Oc5cc6nncn6cn5)c(C)c4)c3c2)c1 [Embodiment 75, N-(3-(4-((4-([1,2,4]triazolo[4,3-c]pyrimidin-7-yloxy)-3-methylphenyl)amino)quinazolin-6-yl)phenyl)acrylamide] | 15 nM |  | 
21 | 4.9 nM | 82.2 nM | 27.9 nM | Cc1cc(Nc2ncnc3ccc(-c4cccc(NC(=O)/C=C/CN(C)C)c4)cc23)ccc1Oc1cc2nncn2cn1 [Embodiment 76, (E)-N-(3-(4-((4-([1,2,4]triazolo[4,3-c]pyrimidin-7-yloxy)-3-methylphenyl)amino)quinazolin-6-yl)phenyl)-4-(dimethylamino)but-2-enamide] | 42.8 nM |  | 
22 | 5.03 nM | 23.6 nM | 254 nM | Cc1cc(Nc2ncnc3ccc(-c4cccc(F)c4)cc23)ccc1Oc1cc2nncn2cn1 [Embodiment 77, N-(4-([1,2,4]triazolo[4,3-c]pyrimidin-7-yloxy)-3-methylphenyl)-6-(3-fluorophenyl)-4-aminoquinazoline] | 509 nM |  | 
23 | 1.8 nM | 3.3 nM | 13.2 nM | CC1(C)COC(Nc2ccc3ncnc(Nc4ccc(Oc5cc6nncn6cn5)c(Cl)c4)c3c2)=N1 [Embodiment 78, N′-[3-chloro-4-([1,2,4]triazolo[4,3-c]pyrimidin-7-yloxy)phenyl)-N^6-(4,4-dimethyl-4,5-dihydrooxazol-2-yl)quinazolin-4,6-diamine] | 22.3 nM |  | 
24 | 1.7 nM | 7.7 nM | 24.7 nM | Cc1cc(Nc2ncnc3ccc(-c4ccc(CNCCS(C)(=O)=O)s4)cc23)ccc1Oc1cc2nncn2cn1 [Embodiment 79] | 37.2 nM |  | 
25 | 1 nM | 12.6 nM | 120 nM | Cc1cc(Nc2ncnc3ccc(-c4cc[nH]c4)cc23)ccc1Oc1cc2nncn2cn1 [Embodiment 80, N-(4-([1,2,4]triazolo[4,3-c]pyrimidin-7-yloxy)-3-methylphenyl)-6-(1H-pyrrol-3-yl)quinazolin-4-amine] | 36 nM |  | 
26 | 16.6 nM | 51.9 nM | 1270 nM | CC1(C)COC(Nc2ccc3ncnc(Nc4ccc(Oc5cc6nncn6cn5)c(C(F)(F)F)c4)c3c2)=N1 [Embodiment 81, N^4-(3-trifluoromethyl-4-([1,2,4]triazolo[4,3-c]pyrimidin-7-yloxy)phenyl)-N^6-(4,4-dimethyl-4,5-dihydrooxazol-2-yl)quinazolin-4,6-diamine] | 749 nM |  | 

Row | SMILES | IC50 [1, 5] | IC50 [2, 6] | IC50 [4] | IC50 [3] | IC50 [1] | IC50 [2]
27 | Cc1cc(Nc2ncnc3ccc(NC(=O)Oc4ccccc4)cc23)ccc1Oc1cc2nncn2cn1 [Embodiment 66] |  |  | 275 nM | 487 nM | 12.9 nM | 567 nM
